Results published in patent US8916702B2 (priority 2012, dated 2014).

system: HCV pseudoparticles (genotype 1a HCV E1 and E2 envelope, H77C isolate); test: microbe, parasite or virus in culture; format: cell-based; conditions: Hepatitis C virus, Huh-7, 48 h, HCV pseudoparticles (genotype 1a, H77C) in Huh7 cells; average of duplicate; luciferase 2 days after infection

Row | SMILES | EC50 [nM]
1 | CC(C)(CNC(=O)C(=O)Nc1cccc(C(=N)N)c1)CNC(=O)c1ccc(Nc2nc(NC3(c4ccc(Cl)cc4)CC3)nc(OCC(F)(F)F)n2)cc1 [Compound 3041] | 0.068
2 | Cc1ccc(NC(=O)C(=O)NCC(C)(C)CNC(=O)c2ccc(Nc3nc(NC4(c5ccc(Cl)cc5)CC4)nc(OCC(F)(F)F)n3)cc2)c(C)c1 [Compound 3055] | 0.0095
3 | Cc1ccc(NC(=O)C(=O)NCC(C)(C)CNC(=O)c2ccc(Nc3nc(NC4(c5ccc(Cl)cc5)CC4)nc(OCC(F)(F)F)n3)cc2)c(F)c1 [Compound 3056] | 0.007
4 | CC(C)(CNC(=O)C(=O)NC1CC1)CNC(=O)c1ccc(Nc2nc(NC3(c4ccc(Cl)cc4)CC3)nc(OCC(F)(F)F)n2)cc1 [Compound 3066] | 0.032
5 | CC(C)(CNC(=O)C(=O)NO)CNC(=O)c1ccc(Nc2nc(NC3(c4ccc(Cl)cc4)CC3)nc(OCC(F)(F)F)n2)cc1 [Compound 3074] | 0.054
6 | COC(=O)[C@H](CNC(=O)C(=O)Nc1ccc(C2CCCCC2)cc1)NC(=O)c1ccc(Nc2nc(NC3(c4ccc(Cl)cc4)CC3)nc(OCC(F)(F)F)n2)cc1 [Compound 3079] | 1.42
7 | COC(=O)[C@H](CNC(=O)C(=O)Nc1ccc(C(=O)c2ccccc2)cc1)NC(=O)c1ccc(Nc2nc(NC3(c4ccc(Cl)cc4)CC3)nc(OCC(F)(F)F)n2)cc1 [Compound 3084] | 3.58

same assay, conditions: Hepatitis C virus, Huh-7, read-out: Activity (EC50 class), HCV pseudoparticles (genotype 1a, H77C) in Huh7 cells; EC50 expressed as class A/B

Row | SMILES | EC50 [nM]
8 | CC(C)(CNC(=O)C(=O)Nc1ccc2ncccc2c1)CNC(=O)c1ccc(Nc2nc(NC3(c4ccc(Cl)cc4)CC3)nc(OCC(F)(F)F)n2)cc1 [Compound 3038] | 0.01 to 10
9 | CC(C)(CNC(=O)C(=O)NCc1cccc(C(=N)N)c1)CNC(=O)c1ccc(Nc2nc(NC3(c4ccc(Cl)cc4)CC3)nc(OCC(F)(F)F)n2)cc1 [Compound 3039] | 0.01 to 10
10 | CC(C)(CNC(=O)C(=O)Nc1ccon1)CNC(=O)c1ccc(Nc2nc(NC3(c4ccc(Cl)cc4)CC3)nc(OCC(F)(F)F)n2)cc1 [Compound 3040] | 0.01 to 10
11 | CC(C)(CNC(=O)C(=O)Nc1cccc(C(=N)N)c1)CNC(=O)c1ccc(Nc2nc(NC3(c4ccc(Cl)cc4)CC3)nc(OCC(F)(F)F)n2)cc1 [Compound 3041] | 0.01 to 10
12 | Cc1cccc(CNC(=O)C(=O)NCC(C)(C)CNC(=O)c2ccc(Nc3nc(NC4(c5ccc(Cl)cc5)CC4)nc(OCC(F)(F)F)n3)cc2)c1 [Compound 3042] | 0.01 to 10
13 | CC(C)(CNC(=O)C(=O)NCc1ccc(C(=N)N)cc1)CNC(=O)c1ccc(Nc2nc(NC3(c4ccc(Cl)cc4)CC3)nc(OCC(F)(F)F)n2)cc1 [Compound 3043] | 0.01 to 10
14 | Cc1ccc(NC(=O)C(=O)NCC(C)(C)CNC(=O)c2ccc(Nc3nc(NC4(c5ccc(Cl)cc5)CC4)nc(OCC(F)(F)F)n3)cc2)cc1F [Compound 3044] | 0.01 to 10
15 | COC(=O)c1cccc(-c2ccccc2NC(=O)C(=O)NCC(C)(C)CNC(=O)c2ccc(Nc3nc(NC4(c5ccc(Cl)cc5)CC4)nc(OCC(F)(F)F)n3)cc2)c1 [Compound 3045] | 0.01 to 10
16 | CC(C)(CNC(=O)C(=O)Nc1ccccc1-n1cnnn1)CNC(=O)c1ccc(Nc2nc(NC3(c4ccc(Cl)cc4)CC3)nc(OCC(F)(F)F)n2)cc1 [Compound 3046] | 0.01 to 10
17 | CCc1ccccc1NC(=O)C(=O)NCC(C)(C)CNC(=O)c1ccc(Nc2nc(NC3(c4ccc(Cl)cc4)CC3)nc(OCC(F)(F)F)n2)cc1 [Compound 3047] | 0.01 to 10
18 | COc1cccc(-c2ccccc2NC(=O)C(=O)NCC(C)(C)CNC(=O)c2ccc(Nc3nc(NC4(c5ccc(Cl)cc5)CC4)nc(OCC(F)(F)F)n3)cc2)c1 [Compound 3049] | 0.01 to 10
19 | COc1ccccc1-c1ccccc1NC(=O)C(=O)NCC(C)(C)CNC(=O)c1ccc(Nc2nc(NC3(c4ccc(Cl)cc4)CC3)nc(OCC(F)(F)F)n2)cc1 [Compound 3050] | 0.01 to 10
20 | O=C(NCC[C@@H](NC(=O)c1ccc(Nc2nc(NC3(c4ccc(Cl)cc4)CC3)nc(OCC(F)(F)F)n2)cc1)C(=O)O)C(=O)Nc1cc(F)c(F)c(F)c1F [Compound 3051] | 0.01 to 10
21 | CC(C)(CNC(=O)C(=O)Nc1ccccc1-c1cc2ccccc2[nH]1)CNC(=O)c1ccc(Nc2nc(NC3(c4ccc(Cl)cc4)CC3)nc(OCC(F)(F)F)n2)cc1 [Compound 3052] | 0.01 to 10
22 | CC(C)(CNC(=O)C(=O)Nc1ccc(-n2cncn2)cc1)CNC(=O)c1ccc(Nc2nc(NC3(c4ccc(Cl)cc4)CC3)nc(OCC(F)(F)F)n2)cc1 [Compound 3053] | 0.01 to 10
23 | CC(C)(CNC(=O)C(=O)Nc1ccc(C[Si](C)(C)C)cc1)CNC(=O)c1ccc(Nc2nc(NC3(c4ccc(Cl)cc4)CC3)nc(OCC(F)(F)F)n2)cc1 [Compound 3054] | 0.01 to 10
24 | Cc1ccc(NC(=O)C(=O)NCC(C)(C)CNC(=O)c2ccc(Nc3nc(NC4(c5ccc(Cl)cc5)CC4)nc(OCC(F)(F)F)n3)cc2)c(C)c1 [Compound 3055] | 0.01 to 10
25 | Cc1ccc(NC(=O)C(=O)NCC(C)(C)CNC(=O)c2ccc(Nc3nc(NC4(c5ccc(Cl)cc5)CC4)nc(OCC(F)(F)F)n3)cc2)c(F)c1 [Compound 3056] | 0.01 to 10
26 | Cc1cc(Cl)ccc1NC(=O)C(=O)NCC(C)(C)CNC(=O)c1ccc(Nc2nc(NC3(c4ccc(Cl)cc4)CC3)nc(OCC(F)(F)F)n2)cc1 [Compound 3057] | 0.01 to 10
27 | CC(C)(CNC(=O)C(=O)Nc1ccc(F)c(Cl)c1)CNC(=O)c1ccc(Nc2nc(NC3(c4ccc(Cl)cc4)CC3)nc(OCC(F)(F)F)n2)cc1 [Compound 3059] | 0.01 to 10
28 | Cc1cc(NC(=O)C(=O)NCC(C)(C)CNC(=O)c2ccc(Nc3nc(NC4(c5ccc(Cl)cc5)CC4)nc(OCC(F)(F)F)n3)cc2)ccc1F [Compound 3060] | 0.01 to 10
29 | Cc1cc(F)ccc1NC(=O)C(=O)NCC(C)(C)CNC(=O)c1ccc(Nc2nc(NC3(c4ccc(Cl)cc4)CC3)nc(OCC(F)(F)F)n2)cc1 [Compound 3061] | 0.01 to 10
30 | CCOc1ccc(NC(=O)C(=O)NCC(C)(C)CNC(=O)c2ccc(Nc3nc(NC4(c5ccc(Cl)cc5)CC4)nc(OCC(F)(F)F)n3)cc2)cc1 [Compound 3062] | 0.01 to 10
31 | CC(C)(CNC(=O)C(=O)Nc1ccccc1C(=O)N1CCCCC1)CNC(=O)c1ccc(Nc2nc(NC3(c4ccc(Cl)cc4)CC3)nc(OCC(F)(F)F)n2)cc1 [Compound 3063] | 0.01 to 10
32 | CC(C)(CNC(=O)C(=O)NOc1ccccc1)CNC(=O)c1ccc(Nc2nc(NC3(c4ccc(Cl)cc4)CC3)nc(OCC(F)(F)F)n2)cc1 [Compound 3064] | 0.01 to 10

Row | SMILES | EC50 [nM]
33 | COc1ccc(-c2ccccc2NC(=O)C(=O)NCC(C)(C)CNC(=O)c2ccc(Nc3nc(NC4(c5ccc(Cl)cc5)CC4)nc(OCC(F)(F)F)n3)cc2)cc1 [Compound 3065] | 0.01 to 10
34 | CC(C)(CNC(=O)C(=O)NC1CC1)CNC(=O)c1ccc(Nc2nc(NC3(c4ccc(Cl)cc4)CC3)nc(OCC(F)(F)F)n2)cc1 [Compound 3066] | 0.01 to 10
35 | COc1ccc(NC(=O)C(=O)NCC(C)(C)CNC(=O)c2ccc(Nc3nc(NC4(c5ccc(Cl)cc5)CC4)nc(OCC(F)(F)F)n3)cc2)c(OC)c1 [Compound 3067] | 0.01 to 10
36 | COc1ccc(NC(=O)C(=O)NCC(C)(C)CNC(=O)c2ccc(Nc3nc(NC4(c5ccc(Cl)cc5)CC4)nc(OCC(F)(F)F)n3)cc2)c(C)c1 [Compound 3068] | 0.01 to 10
37 | COc1cc(NC(=O)C(=O)NCC(C)(C)CNC(=O)c2ccc(Nc3nc(NC4(c5ccc(Cl)cc5)CC4)nc(OCC(F)(F)F)n3)cc2)ccc1F [Compound 3069] | 0.01 to 10
38 | COc1cc(C)ccc1NC(=O)C(=O)NCC(C)(C)CNC(=O)c1ccc(Nc2nc(NC3(c4ccc(Cl)cc4)CC3)nc(OCC(F)(F)F)n2)cc1 [Compound 3070] | 0.01 to 10
39 | CC(C)(CNC(=O)C(=O)Nc1ccc(Cl)c(F)c1)CNC(=O)c1ccc(Nc2nc(NC3(c4ccc(Cl)cc4)CC3)nc(OCC(F)(F)F)n2)cc1 [Compound 3071] | 0.01 to 10
40 | COc1ccc(NC(=O)C(=O)NCC(C)(C)CNC(=O)c2ccc(Nc3nc(NC4(c5ccc(Cl)cc5)CC4)nc(OCC(F)(F)F)n3)cc2)cc1F [Compound 3072] | 0.01 to 10
41 | Cc1ccc(NC(=O)C(=O)NCC(C)(C)CNC(=O)c2ccc(Nc3nc(NC4(c5ccc(Cl)cc5)CC4)nc(OCC(F)(F)F)n3)cc2)c(C)n1 [Compound 3073] | 0.01 to 10
42 | CC(C)(CNC(=O)C(=O)NO)CNC(=O)c1ccc(Nc2nc(NC3(c4ccc(Cl)cc4)CC3)nc(OCC(F)(F)F)n2)cc1 [Compound 3074] | 0.01 to 10
43 | COc1cc(F)ccc1NC(=O)C(=O)NCC(C)(C)CNC(=O)c1ccc(Nc2nc(NC3(c4ccc(Cl)cc4)CC3)nc(OCC(F)(F)F)n2)cc1 [Compound 3075] | 0.01 to 10
44 | CC(C)(CNC(=O)C(=O)Nc1ccccc1C1CC1)CNC(=O)c1ccc(Nc2nc(NC3(c4ccc(Cl)cc4)CC3)nc(OCC(F)(F)F)n2)cc1 [Compound 3076] | 0.01 to 10
45 | COc1ccc(NC(=O)C(=O)NCC(C)(C)CNC(=O)c2ccc(Nc3nc(NC4(c5ccc(Cl)cc5)CC4)nc(OCC(F)(F)F)n3)cc2)c(OC)n1 [Compound 3077] | 0.01 to 10
46 | CC(C)(CNC(=O)C(=O)Nc1cccc(C(=O)c2ccccc2)c1)CNC(=O)c1ccc(Nc2nc(NC3(c4ccc(Cl)cc4)CC3)nc(OCC(F)(F)F)n2)cc1 [Compound 3078] | 0.01 to 10
47 | COC(=O)[C@H](CNC(=O)C(=O)Nc1ccc(C2CCCCC2)cc1)NC(=O)c1ccc(Nc2nc(NC3(c4ccc(Cl)cc4)CC3)nc(OCC(F)(F)F)n2)cc1 [Compound 3079] | 0.01 to 10
48 | COC(=O)[C@H](CNC(=O)C(=O)Nc1ccc(N2CCOCC2)cc1)NC(=O)c1ccc(Nc2nc(NC3(c4ccc(Cl)cc4)CC3)nc(OCC(F)(F)F)n2)cc1 [Compound 3080] | 0.01 to 10
49 | COC(=O)[C@H](CNC(=O)C(=O)Nc1ccc(Cl)cc1)NC(=O)c1ccc(Nc2nc(NC3(c4ccc(Cl)cc4)CC3)nc(OCC(F)(F)F)n2)cc1 [Compound 3081] | 0.01 to 10
50 | COC(=O)[C@H](CNC(=O)C(=O)Nc1ccc(Oc2ccccc2)cc1)NC(=O)c1ccc(Nc2nc(NC3(c4ccc(Cl)cc4)CC3)nc(OCC(F)(F)F)n2)cc1 [Compound 3082] | 0.01 to 10
51 | COC(=O)[C@H](CNC(=O)C(=O)Nc1ccc(-c2ccccc2)cc1)NC(=O)c1ccc(Nc2nc(NC3(c4ccc(Cl)cc4)CC3)nc(OCC(F)(F)F)n2)cc1 [Compound 3083] | 0.01 to 10
52 | COC(=O)[C@H](CNC(=O)C(=O)Nc1ccc(C(=O)c2ccccc2)cc1)NC(=O)c1ccc(Nc2nc(NC3(c4ccc(Cl)cc4)CC3)nc(OCC(F)(F)F)n2)cc1 [Compound 3084] | 0.01 to 10
53 | COC(=O)[C@H](CNC(=O)C(=O)Nc1ccc(C)cc1)NC(=O)c1ccc(Nc2nc(NC3(c4ccc(Cl)cc4)CC3)nc(OCC(F)(F)F)n2)cc1 [Compound 3085] | 0.01 to 10
54 | COC(=O)[C@H](CNC(=O)C(=O)Nc1ccc(CCO)cc1)NC(=O)c1ccc(Nc2nc(NC3(c4ccc(Cl)cc4)CC3)nc(OCC(F)(F)F)n2)cc1 [Compound 3086] | 0.01 to 10
55 | COC(=O)[C@H](CNC(=O)C(=O)Nc1ccc(S(N)(=O)=O)cc1)NC(=O)c1ccc(Nc2nc(NC3(c4ccc(Cl)cc4)CC3)nc(OCC(F)(F)F)n2)cc1 [Compound 3087] | 0.01 to 10
56 | COC(=O)[C@H](CNC(=O)C(=O)Nc1ccc(C(N)=O)cc1)NC(=O)c1ccc(Nc2nc(NC3(c4ccc(Cl)cc4)CC3)nc(OCC(F)(F)F)n2)cc1 [Compound 3088] | 0.01 to 10
57 | CCC(CC)CCNC(=O)c1ccc(NC(=O)C(=O)NC[C@H](NC(=O)c2ccc(Nc3nc(NC4(c5ccc(Cl)cc5)CC4)nc(OCC(F)(F)F)n3)cc2)C(=O)OC)cc1 [Compound 3089] | 0.01 to 10
